How the values were obtained:
ΔF508-CFTR [1] = molecular target: T1, ΔF508-CFTR (Homo sapiens, UniProt P13569, DEL508-508); assay: CFTR cell surface levels using HRP-tagged ΔF508-CFTR expressing CFBE cells, in the presence of a co-corrector; format: cell-based; conditions: HRP-tagged ΔF508-CFTR CFBE cells, in the presence of 3 μM co-corrector; for EC50: read-out: EC50
T1 construct: host or cells: CFBE41o-, doxycycline-inducible
Procedure, shortened: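 Chemiluminescent read-out of surface HRP (15 min, dark) after PBS washes. Activity is normalized as 100×(sample−DMSO)/(3 μM co-corrector alone−DMSO).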

ΔF508-CFTR [2] = molecular target: T1, ΔF508-CFTR; assay: CFTR cell surface levels using HRP-tagged ΔF508-CFTR expressing CFBE cells, intrinsic corrector capacity; format: cell-based; parameters: % Activation: concentration or dose not given beside the values; conditions: HRP-tagged ΔF508-CFTR expressing CFBE41o- cells, compound alone (intrinsic corrector capacity), 20 hours at 33° C.; for EC50: read-out: EC50
Procedure, shortened: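 Surface ΔF508-CFTR was measured as HRP chemiluminescence from an extracellular-loop-4 tag, expressed as percent activity between DMSO and a […] corrector control.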

T1 sequence (P13569 with tags, fused parts or gaps DEL508-508): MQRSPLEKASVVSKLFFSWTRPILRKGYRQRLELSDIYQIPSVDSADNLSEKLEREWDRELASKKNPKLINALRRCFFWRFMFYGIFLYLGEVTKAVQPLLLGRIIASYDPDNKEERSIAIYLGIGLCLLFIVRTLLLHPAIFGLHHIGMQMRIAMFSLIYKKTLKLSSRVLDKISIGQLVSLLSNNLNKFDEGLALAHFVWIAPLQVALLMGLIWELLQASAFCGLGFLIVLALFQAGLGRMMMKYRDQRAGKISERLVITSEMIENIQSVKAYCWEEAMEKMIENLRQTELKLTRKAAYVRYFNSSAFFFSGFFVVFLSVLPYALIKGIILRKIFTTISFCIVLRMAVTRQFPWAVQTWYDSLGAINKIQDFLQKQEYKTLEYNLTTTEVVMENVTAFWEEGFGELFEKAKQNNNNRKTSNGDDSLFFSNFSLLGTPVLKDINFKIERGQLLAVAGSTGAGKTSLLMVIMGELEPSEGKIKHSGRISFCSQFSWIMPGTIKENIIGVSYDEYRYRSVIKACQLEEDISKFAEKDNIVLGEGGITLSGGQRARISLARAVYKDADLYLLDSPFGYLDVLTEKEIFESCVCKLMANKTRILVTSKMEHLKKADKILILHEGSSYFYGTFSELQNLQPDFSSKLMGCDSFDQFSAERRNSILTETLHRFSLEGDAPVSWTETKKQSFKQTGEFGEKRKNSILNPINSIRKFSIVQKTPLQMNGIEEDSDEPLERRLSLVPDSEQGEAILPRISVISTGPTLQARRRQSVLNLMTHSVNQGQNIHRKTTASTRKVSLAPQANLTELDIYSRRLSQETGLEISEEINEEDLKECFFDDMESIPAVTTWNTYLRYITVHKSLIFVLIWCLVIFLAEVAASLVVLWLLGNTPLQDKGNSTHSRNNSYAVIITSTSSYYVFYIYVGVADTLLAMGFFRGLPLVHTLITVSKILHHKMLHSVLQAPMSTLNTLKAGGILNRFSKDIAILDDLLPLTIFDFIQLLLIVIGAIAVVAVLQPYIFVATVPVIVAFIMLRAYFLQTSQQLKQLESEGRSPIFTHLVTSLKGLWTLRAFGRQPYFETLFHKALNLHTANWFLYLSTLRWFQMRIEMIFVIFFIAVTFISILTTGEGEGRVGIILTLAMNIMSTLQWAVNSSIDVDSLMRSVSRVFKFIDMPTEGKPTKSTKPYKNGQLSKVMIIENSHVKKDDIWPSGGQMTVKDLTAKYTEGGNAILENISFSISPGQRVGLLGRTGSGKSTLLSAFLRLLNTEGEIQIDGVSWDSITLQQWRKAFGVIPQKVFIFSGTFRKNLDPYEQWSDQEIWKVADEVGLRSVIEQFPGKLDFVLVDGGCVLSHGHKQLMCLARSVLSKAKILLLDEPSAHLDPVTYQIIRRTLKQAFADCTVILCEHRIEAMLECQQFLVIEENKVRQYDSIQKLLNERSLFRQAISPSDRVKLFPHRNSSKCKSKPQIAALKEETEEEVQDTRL

| SMILES | % Activation (ΔF508-CFTR [1]) [%] | EC50 (ΔF508-CFTR [1]) [nM] | % Activation (ΔF508-CFTR [2]) [%] | EC50 (ΔF508-CFTR [2]) [nM] |
| --- | --- | --- | --- | --- |
| COC1CCN(c2cc(C(=O)NS(=O)(=O)CCNC(=O)c3ccccc3C(=O)O)nc3c2c(C2CCC2)nn3-c2ccccc2)CC1 [Compound 174, 2-[(2-{[3-cyclobutyl-4-(4-methoxypiperidin-1-yl)-1-phenyl-1H-pyrazolo[3,4-b]pyridine-6-carbonyl]sulfamoyl}ethyl)carbamoyl]benzoic acid] | 545 | 468 | 347.9 | 754 |
| CC(C)c1nn(-c2cccc(N(C)C)c2)c2nc(C(=O)NS(C)(=O)=O)cc(-c3cnc(N(C)C)nc3)c12 [Compound 77, 1-[3-(dimethylamino)phenyl]-4-[2-(dimethylamino)pyrimidin-5-yl]-N-(methanesulfonyl)-3-(propan-2-yl)-1H-pyrazolo[3,4-b]pyridine-6-carboxamide] | 449.85 | 831 | 296.45 | 639 |
| COCCS(=O)(=O)NC(=O)c1cc(-c2ccc(N3CCOCC3)cc2)c2c(C)nn(C3CC3)c2n1 [Compound 235, 1-cyclopropyl-N-(2-methoxyethanesulfonyl)-3-methyl-4-[4-(morpholin-4-yl)phenyl]-1H-pyrazolo[3,4-b]pyridine-6-carboxamide] | 257.55 | 2490 | 102.76 | 3270 |
| COC1CCN(c2cc(C(=O)NS(=O)(=O)CCC(F)(F)F)nc3c2c(C2CCC2)nn3-c2ccccc2)CC1 [Compound 147, 3-cyclobutyl-4-(4-methoxypiperidin-1-yl)-1-phenyl-N-(3,3,3-trifluoropropane-1-sulfonyl)-1H-pyrazolo[3,4-b]pyridine-6-carboxamide] | 363.93 | 99.9 | 176.47 | 359 |
| CC(C)c1nn(-c2cccc(N(C)C)c2)c2nc(C(=O)NS(C)(=O)=O)cc(-c3ccc(N4CCC(C#N)CC4)cc3)c12 [Compound 81, 4-[4-(4-cyanopiperidin-1-yl)phenyl]-1-[3-(dimethylamino)phenyl]-N-(methanesulfonyl)-3-(propan-2-yl)-1H-pyrazolo[3,4-b]pyridine-6-carboxamide] | 646.44 | 253 | 495.8 | 385 |
| COCC1CCN(c2cc(C(=O)N(C)S(C)(=O)=O)nc3c2c(C2CCC2)nn3-c2ccccc2)CC1 [Compound 657, 3-cyclobutyl-N-(methanesulfonyl)-4-[4-(methoxymethyl)piperidin-1-yl]-N-methyl-1-phenyl-1H-pyrazolo[3,4-b]pyridine-6-carboxamide] | 270.75 | 197 | 98 | 281 |
| CCS(=O)(=O)NC(=O)c1cc(-c2ccc(N(C)C)nc2)c2c(C(C)C)nn(C3CCCC3)c2n1 [Compound 56, 1-cyclopentyl-4-[6-(dimethylamino)pyridin-3-yl]-N-(ethanesulfonyl)-3-(propan-2-yl)-1H-pyrazolo[3,4-b]pyridine-6-carboxamide] | 336.75 | 838 | 122.1 | 1180 |
| COCC1(F)CCN(c2cc(C(=O)NS(C)(=O)=O)nc3c2c(C2CCC2)nn3-c2ccccc2)CC1 [Compound 504, 3-cyclobutyl-4-[4-fluoro-4-(methoxymethyl)piperidin-1-yl]-N-(methanesulfonyl)-1-phenyl-1H-pyrazolo[3,4-b]pyridine-6-carboxamide] | 404.8 | 210 | 206.4 | 301 |
| Cc1nn(-c2ccc(OC(F)(F)F)cc2)c2nc(C(=O)NS(C)(=O)=O)cc(-c3ccc(N4CCOCC4)cc3)c12 [Compound 69, N-(methanesulfonyl)-3-methyl-4-[4-(morpholin-4-yl)phenyl]-1-[4-(trifluoromethoxy)phenyl]-1H-pyrazolo[3,4-b]pyridine-6-carboxamide] | 362.03 | 404 | 182.08 | 632 |
| COCCN(C)c1ncc(-c2cc(C(=O)NS(C)(=O)=O)nc3c2c(C(C)C)nn3C2CCCCC2)cn1 [Compound 120, 1-cyclohexyl-N-(methanesulfonyl)-4-{2-[(2-methoxyethyl)(methyl)amino]pyrimidin-5-yl}-3-(propan-2-yl)-1H-pyrazolo[3,4-b]pyridine-6-carboxamide] | 351.03 | 348 | 169.2 | 554 |
| CS(=O)(=O)NC(=O)c1cc(N2CCC3(C2)CC3(F)F)c2c(C3CCC3)nn(-c3ccccc3)c2n1 (stereo not shown) [Compound 202, 3-cyclobutyl-4-(1,1-difluoro-5-azaspiro[2.4]heptan-5-yl)-N-(methanesulfonyl)-1-phenyl-1H-pyrazolo[3,4-b]pyridine-6-carboxamide] | 299.4 | 255 | 147.23 | 595 |
| O=C(c1cc(N2CCC(N3CCOCC3)CC2)c2c(C3CCC3)nn(-c3ccccc3)c2n1)N1CCCS1(=O)=O [Compound 665, 2-{3-cyclobutyl-4-[4-(morpholin-4-yl)piperidin-1-yl]-1-phenyl-1H-pyrazolo[3,4-b]pyridine-6-carbonyl}-1λ^6,2-thiazolidine-1,1-dione] | 271.8 | 101 | 101.9 | 259 |
| CCCN(C)S(=O)(=O)NC(=O)c1cc(N2CCC(N3CCN(C4CC4)CC3)CC2)c2c(C3CCC3)nn(-c3ccccc3)c2n1 [Compound 554, 3-cyclobutyl-4-[4-(4-cyclopropylpiperazin-1-yl)piperidin-1-yl]-N-[methyl(propyl)sulfamoyl]-1-phenyl-1H-pyrazolo[3,4-b]pyridine-6-carboxamide] | 481 | 56.9 | 269.45 | 108 |
| COCCN(C)c1ccc(-c2cc(C(=O)NS(C)(=O)=O)nc3c2c(C(C)C)nn3-c2cccc(N(C)C)c2)cn1 [Compound 84, 1-[3-(dimethylamino)phenyl]-N-(methanesulfonyl)-4-{6-[(2-methoxyethyl)(methyl)amino]pyridin-3-yl}-3-(propan-2-yl)-1H-pyrazolo[3,4-b]pyridine-6-carboxamide] | 468.2 | 408 | 311.7 | 660 |
| CC1(C)CN(C2CCN(c3cc(C(=O)NS(C)(=O)=O)nc4c3c(C3CCC3)nn4-c3ccc(F)cc3)CC2)CCO1 [Compound 588, 3-cyclobutyl-4-[4-(2,2-dimethylmorpholin-4-yl)piperidin-1-yl]-1-(4-fluorophenyl)-N-(methanesulfonyl)-1H-pyrazolo[3,4-b]pyridine-6-carboxamide] | 571.2 | 29 | 366.8 | 126 |
| CS(=O)(=O)NC(=O)c1cc(N2CCC3(CCO3)CC2)c2c(C3CCC3)nn(-c3ccccc3)c2n1 [Compound 159, 3-cyclobutyl-N-(methanesulfonyl)-4-(1-oxa-7-azaspiro[3.5]nonan-7-yl)-1-phenyl-1H-pyrazolo[3,4-b]pyridine-6-carboxamide] | 270.3 | 483 | 103.02 | 661 |
